Source: the supplement of paper PMC7840683
± gives the standard deviation of the averaged measurements.

System: HepaRG
Assay: LDH release cytotoxicity, % of total lysis control; higher = more cytotoxic
Conditions: 48 h
Method in brief: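 On collagen I-coated 96-well plates, single-lot HepaRG cells were exposed for 48 h, in duplicate, to eight-point half-log series of test chemicals beginning at 100 µM. The exposure medium was serum-free induction medium with 0.5% DMSO, and total lysis wells got 0.1% Triton X. Resorufin fluorescence from the CytoTox-ONE reaction, read on a Tecan Safire, reported LDH in 50 µL of spent medium. Percent cytotoxicity came from normalization to on-plate vehicle and total lysis controls, averaged over the duplicates.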

Row | SMILES | LDH release cytotoxicity (0.03162 µM) [%] | LDH release cytotoxicity (0.1 µM) [%] | LDH release cytotoxicity (0.3162278 µM) [%] | LDH release cytotoxicity (1 µM) [%] | LDH release cytotoxicity (3.16228 µM) [%] | LDH release cytotoxicity (10 µM) [%] | LDH release cytotoxicity (31.6228 µM) [%] | LDH release cytotoxicity (100 µM) [%] | further results
1 | CON(C)C(=O)Nc1ccc(Cl)c(Cl)c1 [Linuron] | -1.04 ± 0.089 | -1.18 ± 0.7 | -1.18 ± 0.5 | -0.927 ± 0.94 | -1.44 ± 0.95 | -0.708 ± 0.44 | 0.755 ± 1 | 0.919 ± 1.2 | –
2 | CCC(C)C(=O)OC1CC(C)C=C2C=CC(C)C(CCC3CC(O)CC(=O)O3)C21 (stereo not given) [Lovastatin] | – | -2.24 ± 2.7 | – | -3.8 ± 0.94 | -3.98 ± 0.75 | -3.52 ± 0.1 | -3.4 ± 0.086 | 1.06 ± 0.76 | LDH release cytotoxicity (0.031623 µM): -0.879 ± 0.35%; LDH release cytotoxicity (0.316228 µM): -3.24 ± 1.1%
3 | Cc1cc(Cl)ccc1OCC(=O)O [MCPA] | -0.121 ± 0.17 | -0.914 ± 0.53 | -0.511 ± 0.28 | -0.689 ± 0.68 | -0.578 ± 0.24 | -0.154 ± 0.47 | 0.865 ± 0.061 | 1.22 ± 0.86 | –
4 | CCCCC(CC)COC(=O)c1ccccc1C(=O)O (stereo not given) [MEHP] | – | – | – | – | – | – | – | – | LDH release cytotoxicity (0.0320971 µM): -1.24 ± 1.4%; LDH release cytotoxicity (0.1015 µM): -1.27 ± 0.27%; LDH release cytotoxicity (0.320971 µM): -1.13 ± 1.5%; LDH release cytotoxicity (1.015 µM): -1.47 ± 1.3%; LDH release cytotoxicity (3.2097118 µM): -1.28 ± 0.83%; LDH release cytotoxicity (10.15 µM): -0.944 ± 0.92%; LDH release cytotoxicity (32.0971 µM): -1.07 ± 0.41%; LDH release cytotoxicity (101.5 µM): 0.594 ± 0.91%
5 | NC(=O)c1nc(-c2cccc(-c3cc(F)ccc3OCC(F)(F)C(F)(F)F)c2)n[nH]1 [MK-274] | -1.29 ± 0.91 | -0.429 ± 0.81 | -0.661 ± 0.16 | -1.07 ± 0.22 | -0.753 ± 0.38 | -0.915 ± 0.94 | 0.166 ± 0.068 | 86.6 ± 1.7 | –
6 | CCCCc1ccc2c(n1)C(c1ccc(OC)cc1CC(C)C(=O)O)C(C(=O)O)C2c1ccc2c(c1)OCO2 (stereo not given) [MK-547] | -0.553 ± 0.95 | -1.23 ± 0.22 | -0.915 ± 0.25 | -1.66 ± 0.29 | -0.888 ± 0.3 | -0.832 ± 0.16 | -0.204 ± 0.43 | 0.0481 ± 0.055 | –
7 | CCn1nc(Cc2ccccc2)cc1C1CCN(CC2CC(N(C)C(C(=O)O)C(C)C)CC2c2cccc(F)c2)CC1 (stereo not given) [MK-578] | -1.06 ± 0.49 | -1.8 ± 0.42 | -1.85 ± 0.13 | -2.168 ± 0.0097 | -2.16 ± 0.039 | -1.47 ± 0.29 | -1.08 ± 0.3 | 9.55 ± 0.94 | –
8 | COC1COCCC1NC1CCC(C(=O)N2CCc3ncc(C(F)(F)F)cc3C2)(C(C)C)C1 (stereo not given) [MK-812] | 0.0558 ± 0.81 | -1.65 ± 0.31 | -1.72 ± 0.43 | -2.52 ± 1.1 | -1.87 ± 1 | -1.43 ± 0.51 | -1.59 ± 0.027 | -0.0412 ± 0.23 | –
9 | Fc1ccccc1C(F)COC1CCC(Nc2[nH]cnc3nncc2-3)CC1 (stereo not given) [MK-968] | -1.09 ± 1.7 | -1.55 ± 0.47 | -2.19 ± 0.36 | -2.2 ± 0.68 | -2.43 ± 0.47 | -2.42 ± 0.46 | 1.23 ± 0.027 | 10.8 ± 2.6 | –
10 | CCOC(=O)CC(SP(=O)(OC)OC)C(=O)OCC (stereo not given) [Malaoxon] | – | -1.49 ± 0.13 | – | -2.43 ± 0.17 | -2.14 ± 0.62 | -2.43 ± 0.25 | -1.77 ± 0.98 | -0.859 ± 0.23 | LDH release cytotoxicity (0.031623 µM): -0.0319 ± 0.49%; LDH release cytotoxicity (0.316228 µM): -2.33 ± 1.5%
11 | CCOC(=O)CC(SP(=S)(OC)OC)C(=O)OCC (stereo not given) [Malathion] | 0.138 ± 0.34 | -0.944 ± 0.55 | -0.165 ± 0.55 | -0.829 ± 0.26 | -0.0242 ± 0.075 | -0.216 ± 0.19 | -0.432 ± 0.52 | 0.626 ± 0.78 | –
12 | O=c1ccc(=O)[nH][nH]1 [Maleic hydrazide] | -0.979 ± 0.52 | -0.493 ± 0.19 | -1.74 ± 0.22 | -0.384 ± 0.92 | -1.91 ± 0.55 | -1.15 ± 0.52 | 0.124 ± 0.07 | 2.69 ± 1.4 | –
13 | O=C(O)CC(O)C(=O)O (stereo not given) [Malic acid] | -1.2 ± 0.52 | -1.77 ± 0.018 | -1.39 ± 0.22 | -1.28 ± 1.3 | -1.27 ± 0.26 | -1.41 ± 0.57 | -1.33 ± 0.1 | 0.326 ± 0.19 | –
14 | CC1OC=CC(=O)C1=O (stereo not given) [Maltol] | – | – | – | – | – | – | – | – | LDH release cytotoxicity (0.032888 µM): -1.82 ± 0.089%; LDH release cytotoxicity (0.104 µM): -1.46 ± 1.1%; LDH release cytotoxicity (0.328877 µM): -2.18 ± 0.095%; LDH release cytotoxicity (1.04 µM): -3.62 ± 0.59%; LDH release cytotoxicity (3.28877 µM): -2.64 ± 0.45%; LDH release cytotoxicity (10.4 µM): -1.92 ± 0.23%; LDH release cytotoxicity (32.8877 µM): -1.627 ± 0.0032%; LDH release cytotoxicity (104 µM): 0.353 ± 0.45%
15 | S=C([S-])NCCNC(=S)[S-].S=C([S-])NCCNC(=S)[S-].[Mn+2].[Zn+2] [Mancozeb] | – | – | – | – | – | – | – | – | LDH release cytotoxicity (0.01581 µM): -1.38 ± 0.48%; LDH release cytotoxicity (0.05 µM): -1.29 ± 0.95%; LDH release cytotoxicity (0.1581139 µM): -2.2 ± 0.12%; LDH release cytotoxicity (0.5 µM): -0.828 ± 0.04%; LDH release cytotoxicity (1.5811388 µM): 30.3 ± 1.4%; LDH release cytotoxicity (5 µM): 68.2 ± 0.83%; LDH release cytotoxicity (15.8114 µM): 72.55 ± 0.27%; LDH release cytotoxicity (50 µM): 77.11 ± 0.33%
16 | S=C(S)NCCNC(=S)S [Maneb] | – | -3.72 ± 0.66 | – | -4.15 ± 0.23 | 25.2 ± 5.5 | 75.5 ± 4.6 | 77.2 ± 2.5 | 77.7 ± 3 | LDH release cytotoxicity (0.031623 µM): -0.532 ± 1.1%; LDH release cytotoxicity (0.316228 µM): -2.09 ± 1.5%
17 | CC#Cc1cc(C)nc(Nc2ccccc2)n1 [Mepanipyrim] | -1.35 ± 0.26 | -1.3 ± 0.77 | -1.45 ± 0.36 | -1.69 ± 0.92 | -0.377 ± 0.77 | 0.835 ± 1.1 | 2.41 ± 0.37 | 11.4 ± 0.23 | –
18 | [Cl][Hg][Cl] [Mercuric chloride] | -0.633 ± 0.43 | 0.0218 ± 0.9 | -0.338 ± 0.41 | -0.378 ± 0.19 | 0.165 ± 0.14 | -0.398 ± 0.26 | -1.52 ± 0.15 | -4.6 ± 0.1 | –
19 | CS(=O)(=O)c1ccc(C(=O)C2C(=O)CCCC2=O)c([N+](=O)[O-])c1 [Mesotrione] | – | – | – | – | – | – | – | – | LDH release cytotoxicity (0.0320971 µM): 0.286 ± 0.54%; LDH release cytotoxicity (0.1015 µM): -0.676 ± 1.3%; LDH release cytotoxicity (0.320971 µM): -1.35 ± 0.82%; LDH release cytotoxicity (1.015 µM): -0.8 ± 0.14%; LDH release cytotoxicity (3.2097118 µM): -0.694 ± 0.22%; LDH release cytotoxicity (10.15 µM): -1.17 ± 0.99%; LDH release cytotoxicity (32.0971 µM): -1.09 ± 0.39%; LDH release cytotoxicity (101.5 µM): -1.76 ± 0.31%
20 | COCC(=O)N(c1c(C)cccc1C)C(C)C(=O)OC (stereo not given) [Metalaxyl] | -1.86 ± 0.61 | -0.811 ± 0.78 | -0.303 ± 0.27 | -0.996 ± 0.099 | -0.0482 ± 0.74 | -0.0413 ± 0.72 | 0.228 ± 0.89 | 2.83 ± 2.6 | –
